According to patent US8633177B2, “Nitroxyl (HNO) releasing compounds and uses thereof in treating diseases” (The United States of America, as represented by the …, priority 2010, dated 2014):

Tests used:
HUVECs = assay: MTT assay, normal endothelial cell line HUVECs; type: cell-based
[1] = biological target: T1, glyceraldehyde-3-phosphate dehydrogenase (GAPDH) (Homo sapiens, UniProt P04406); assay: GAPDH activity, MCF-7; type: cell-based; set-up: endogenous in cells; host or cells: MDA-MB-231, MDA-MB-468, MCF-7, MCF-10A; conditions: MCF-7, 100 μM
T1 sequence (P04406 whole entry): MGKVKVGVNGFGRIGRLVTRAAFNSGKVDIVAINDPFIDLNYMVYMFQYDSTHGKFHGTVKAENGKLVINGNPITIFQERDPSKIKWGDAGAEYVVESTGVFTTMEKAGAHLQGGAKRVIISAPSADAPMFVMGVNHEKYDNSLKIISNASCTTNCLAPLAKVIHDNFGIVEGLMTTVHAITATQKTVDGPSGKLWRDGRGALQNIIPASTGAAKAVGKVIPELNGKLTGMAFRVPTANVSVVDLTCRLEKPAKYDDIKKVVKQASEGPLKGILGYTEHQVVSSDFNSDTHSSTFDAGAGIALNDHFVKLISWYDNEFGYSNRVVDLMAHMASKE
Description: (§1) Cells were plated at a concentration of 30,000 cells per well and grown overnight. Cells were treated with 100 μM IPA/NO-aspirin and DEA/NO-aspirin for 1, 3, and 6 h after which 200 μL of KDalert lysis buffer was added to each well. The plate was incubated at 4° C. for 20 min to lyse the cells. 10 μL of cell lysate was transferred to a clean 96 well plate and 90 μL of KDalert mastermix was added to each well and the fluorescence was measured at excitation of 540 nm and emission of 570 nm.

[2] = NO quantified by chemiluminescence during hydrolysis; type: physicochemical; conditions: 1 mM ferricyanide solution
Description: In addition to HNO measurements as described above by reductive nitrosylation of metmyoglobin, NO was quantified by chemiluminescence assay, N2O by gas chromatography, and nitrite ion by the Griess assay.
Detection of HNO was also carried out using the chemiluminescence method in, 1 mM ferricyanide solution.

[3] = test system: carrageenan induced rat paw edema; assay: Carrageenan induced rat paw edema assay; type: in vivo, Sprague-Dawley rats; conditions: for Anti-inflammatory Activity ID50: oral, 3 h after administration
Description: Anti-inflammatory properties were studied in vivo in a carrageenan induced rat paw edema assay after 3 h of administration of the compound orally to Sprague-Dawley rats.
To verify whether IPA/NO-aspirin and DEA/NO-aspirin retain the anti-inflammatory properties of their parent NSAID in vivo, aspirin, PA/NO-aspirin or DEA/NO-aspirin was administered to rats with paw edema induced by carrageenan.

stomach ulcers = assay: Ulcerogenicity (ulcer index) after oral administration; type: in vivo, rats; conditions: for Ulcer Index: 6 h after oral administration, equivalent to 250 mg/kg aspirin; for UI (ulcer index): as given in the text
Description: Ulcerogenicity was evaluated 6 h after oral administration of 250 mg/kg of aspirin (250 mg/kg) and an equivalent amount of the corresponding test compound. The compounds were suspended in 1.7 mL of a 1% methylcellulose solution and administered. The control rats received oral administration of a vehicle (1.7 mL of 1.0% methylcellulose solution). The rats were euthanized in a CO2 chamber and their stomachs and placed on ice and then the ulcers were studied using magnifying glass.

COX-2 mRNA = assay: COX mRNA levels; type: cell-based; conditions: Control 1.0
Excerpt: PGE2 levels are a direct measure of COX-2 activity. […] Increased COX-2 expression in the presence of aspirin has been reported previously (Davies et al., Alimentary Pharm. & Ther. 11(6):1101-08 (1997))). Both DEA/NO and DEA/NO-aspirin seem to augment the effect of aspirin while IPA/NO and IPA/NO-aspirin nullifies the effect and brings it back to the control level (Table 3).

[4] = biological target: T1, glyceraldehyde-3-phosphate dehydrogenase (GAPDH); assay: GAPDH activity, MCF-10A; type: cell-based; set-up: endogenous in cells; conditions: MCF-10A cell line
Description: as §1

[5] = biological target: T1, glyceraldehyde-3-phosphate dehydrogenase (GAPDH); assay: GAPDH activity in A549 cells (KDalert); type: cell-based; set-up: GAPDH activity in A549 cells at different time points; endogenous in cells; host or cells: A549
Description: In an effort to decipher the mechanism of action of compounds 4 and 8, their effect on glyceraldehyde-3-phosphate dehydrogenase (GAPDH) activity was measured. GAPDH is a glycolytic enzyme which reversibly catalyzes the oxidation of D-glyceraldehyde-3-phosphate to 1,3-diphosphoglycerate. This method utilizes the conversion of NAD^+ to NADH by GAPDH in the presence of glyceraldehydes-3-phosphate and phosphate, which can be measured at an excitation of 560 nm and emission of 590 nm.
Cells were plated at a concentration of 30,000 cells per well and grown overnight. Then they were treated with 100 μM IPA/NO-aspirin and DEA/NO-aspirin for 1, 3, and 6 h followed by which 200 μL of KDalert lysis buffer was added to each well. The plate was incubated at 4° C. for 20 min to lyse the cells. Then 10 μL of cell lysate was transferred to a clean 96 well plate and 90 μL of KDalert mastermix was added to each well and fluorescence was measured at excitation of […]. […] It is also a critical glycolytic enzyme that can play an important role in cancer therapy as solid tumors are known to utilize glycolytic pathways even during normoxia to meet energy requirements (Gatenby et al., Nat. Rev. Cancer, 4(11):891099 (2004)). Thus, inhibition of GAPDH can diminish the […] of tumor cells.

A549 cells = assay: MTT proliferation assay, A549 cells; type: cell-based; conditions: 48 h
Description: The effect of compounds 4 and 8 was studied on proliferation of A549 cells by 3-(4,5-Dimethylthiazol-2-yl)-2,5-diphenyltetrazolium bromide (MTT) assay. Cells were plated at a concentration of 10,000 cells per well in a 96 well plate and grown overnight. Then the cells were treated with different concentration of the compounds and controls for 48 h. After 48 h, a solution of 2 mg/ml MTT was added to each well and incubated for 1 hr. The media was then removed from each well and 100 μL DMSO was added to each well and the absorbance was recorded at 550 nm.

Row | SMILES | cell death in MTT assay (HUVECs) | GAPDH Activity ([1]; 1 h) | GAPDH Activity ([1]; 3 h) | GAPDH Activity ([1]; 6 h) | NO/HNO release by chemiluminescence [2] | potency relative to aspirin ([3]; less potent than parent drug) | Anti-inflammatory Activity ID50 [3] | Ulcer Index (stomach ulcers) | UI (ulcer index) (stomach ulcers) | COX-2 mRNA level relative to control (COX-2 mRNA) | GAPDH Activity [4] | GAPDH Activity [5] | toxicity in MTT assay (A549 cells)
1 | CCN(CC)[N+]([O-])=NOCOC(=O)c1ccccc1OC(C)=O [DEA/NO-aspirin, O^2-(Acetylsalicyloyloxymethyl)-1-(N,N-Diethylamino)-diazen-1-ium-1,2-diolate] | No significant cell death | 0.080 U/mL | 0.110 U/mL | 0.130 U/mL | shows NO release | 1.3 times | 168.6 mg/kg | 0 mg/kg | 0 | 6.5 | – | – | –
2 | CC(=O)Oc1ccccc1C(=O)OCON=[N+]([O-])NC(C)C [IPA/NO-aspirin, O^2-(Acetylsalicyloyloxymethyl)-1-(N-isopropylamino)-diazen-1-ium-1,2-diolate] | No significant cell death | <0.010 U/mL | <0.010 U/mL | <0.010 U/mL | showed both NO and HNO release | – | 121.3 mg/kg | 3.3 ± 3 mg/kg | 3.0+3.0 | 0.8 | did not inhibit GAPDH activity | inhibition of GAPDH activity at micro-molar concentrations | slightly higher toxicity than compound 8
